Here are results for 18 compounds from PubChem BioAssay (NCI).

Values joined by “and” are separate entries in the source; they are usually repeats but may differ in a detail not shown here. Equal values may be shown once.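 Briefly, cells in 96-well plates were exposed to five compound concentrations for 48 h, and endpoints were estimated by linear interpolation. GI50 marks 50% less growth. At the TGI there is no net growth.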

One assay relates to DLD-1 colon. Put plainly: NCI tumour cell line growth inhibition, 48 h.
As to `CC/C=C\C/C=C\C/C=C\CCCCCCCC(=O)OCC(O)CO` (stereo unspecified), the TGI was more than 100 µM.

`Cc1cccc(C)c1NC(=O)/C(=N/NC(N)=S)C(C)C(=O)c1ccc(Cl)cc1` (stereo unspecified) registered a TGI of more than 100 µM.

Compound `N#CC(C#N)=C1NC(=O)CC(=O)N1` returned a TGI of more than 100 µM.

As to `Nc1nc(OCc2ccccc2)c2[nH]cnc2n1`, the TGI worked out at 400 µM.

`Fc1ccc(C2SCc3nc4ccccc4n32)c(F)c1` (stereo unspecified) came in with a TGI of more than 100 µM.

Take `NC(=O)c1csc(C2OC(CO)C(O)C2O)n1` (stereo unspecified): the TGI was more than 7200 µM.

Compound `CCN(CC)CC1c2ccccc2C(CNc2ccccc2)N1C` (stereo unspecified) had a TGI of more than 100 µM.

Take `CC1(O)C=CC(=O)C=C1`: the TGI was 28.2 µM.

In turn, `CC(=O)Nc1ccc(SC#N)c2c(NC(C)=O)cccc12` had a TGI of more than 100 µM.

In turn, `Cc1ccc(-c2nnc(-c3nn(-c4ccccc4)c4nc5ccccc5nc34)o2)cc1` came in with a TGI of more than 100 µM.

Take `Cc1ccc2c(C3Cc4ccccc4N3C(=O)/C=C\C(=O)O)c(C)[nH]c2c1` (stereo unspecified): the TGI is more than 100 µM.

In the case of `CCOC(=O)C1C(=S)NC(=O)C1C#N` (stereo unspecified), the TGI is more than 100 µM.

For `CC#CCC1CCC(OCC)=CC1=O` (stereo unspecified), the TGI was more than 100 µM.

In turn, `O=C1CC(c2c[nH]c3ccccc23)C(=O)N1` (stereo unspecified) returned a TGI of more than 100 µM.

Consider `N#CC(=C1C=CC(=NO)C=C1)c1ccc(Cl)cc1`, for which the TGI is 39 µM.

Take `COc1cc2c(c(OC)c1OC)-c1ccc(SC)c(=O)cc1C(NC(=O)c1ccccc1)CC2` (stereo unspecified): the TGI was more than 100 µM.

Regarding `Cc1c(/C=N/N=C/c2[nH]c(C(=O)OC(C)(C)C)c(C)c2C)[nH]c(C(=O)OC(C)(C)C)c1C`, the TGI was more than 100 µM.

The next assay deals with DMS 273 small cell lung. Put plainly: NCI tumour cell line growth inhibition, 48 h.
On to `CC/C=C\C/C=C\C/C=C\CCCCCCCC(=O)OCC(O)CO` (stereo unspecified), for which the TGI is more than 100 µM.

Regarding `Cc1cccc(C)c1NC(=O)/C(=N/NC(N)=S)C(C)C(=O)c1ccc(Cl)cc1` (stereo unspecified), the TGI is more than 100 µM.

`N#CC(C#N)=C1NC(=O)CC(=O)N1` returned a TGI of more than 100 µM.

In the case of `Nc1nc(OCc2ccccc2)c2[nH]cnc2n1`, the TGI turned out to be 400 µM.

Compound `Fc1ccc(C2SCc3nc4ccccc4n32)c(F)c1` (stereo unspecified) gave a TGI of more than 100 µM.

Compound `NC(=O)c1csc(C2OC(CO)C(O)C2O)n1` (stereo unspecified) registered a TGI of 9960 µM.

Turning to `CCN(CC)CC1c2ccccc2C(CNc2ccccc2)N1C` (stereo unspecified), the TGI was more than 100 µM.

For `CC1(O)C=CC(=O)C=C1`, the TGI was 38.5 µM.

For `CC(=O)Nc1ccc(SC#N)c2c(NC(C)=O)cccc12`, the TGI was more than 100 µM.

`Cc1ccc(-c2nnc(-c3nn(-c4ccccc4)c4nc5ccccc5nc34)o2)cc1` yielded a TGI of 65.1 µM.

Take `Cc1ccc2c(C3Cc4ccccc4N3C(=O)/C=C\C(=O)O)c(C)[nH]c2c1` (stereo unspecified): the TGI is more than 100 µM.

Compound `COc1ccc(C=O)c([N+](=O)[O-])c1` showed a TGI of 95.1 µM.

Regarding `CCOC(=O)C1C(=S)NC(=O)C1C#N` (stereo unspecified), the TGI is more than 100 µM.

Compound `CC#CCC1CCC(OCC)=CC1=O` (stereo unspecified) returned a TGI of more than 100 µM.

Compound `O=C1CC(c2c[nH]c3ccccc23)C(=O)N1` (stereo unspecified) showed a TGI of more than 100 µM.

For the compound `N#CC(=C1C=CC(=NO)C=C1)c1ccc(Cl)cc1`, the TGI was more than 100 µM.

On to `COc1cc2c(c(OC)c1OC)-c1ccc(SC)c(=O)cc1C(NC(=O)c1ccccc1)CC2` (stereo unspecified), for which the TGI is more than 40.6 µM.

`Cc1c(/C=N/N=C/c2[nH]c(C(=O)OC(C)(C)C)c(C)c2C)[nH]c(C(=O)OC(C)(C)C)c1C` yielded a TGI of more than 100 µM.

A further assay concerns KM12 colon. Description: NCI tumour cell line growth inhibition, 48 h.
In the case of `CC/C=C\C/C=C\C/C=C\CCCCCCCC(=O)OCC(O)CO` (stereo unspecified), the TGI is more than 70.9 µM.

Consider `Cc1cccc(C)c1NC(=O)/C(=N/NC(N)=S)C(C)C(=O)c1ccc(Cl)cc1` (stereo unspecified), for which the TGI was more than 100 µM.

Compound `N#CC(C#N)=C1NC(=O)CC(=O)N1` displayed a TGI of more than 100 µM.

As to `Nc1nc(OCc2ccccc2)c2[nH]cnc2n1`, the GI50 was 59.6 µM and 62 µM; the TGI is 400 µM and 307 µM.

Consider `Fc1ccc(C2SCc3nc4ccccc4n32)c(F)c1` (stereo unspecified), for which the TGI is more than 100 µM.

On to `NC(=O)c1csc(C2OC(CO)C(O)C2O)n1` (stereo unspecified), for which the GI50 was 70.8 µM and the TGI worked out at 6070 µM.

The compound `CCN(CC)CC1c2ccccc2C(CNc2ccccc2)N1C` (stereo unspecified) had a TGI of more than 100 µM.

Compound `CC1(O)C=CC(=O)C=C1` had a TGI of more than 75.4 µM.

In the case of `CC(=O)Nc1ccc(SC#N)c2c(NC(C)=O)cccc12`, the TGI was more than 100 µM.

`Cc1ccc(-c2nnc(-c3nn(-c4ccccc4)c4nc5ccccc5nc34)o2)cc1`: the TGI was more than 100 µM.

As for `Cc1ccc2c(C3Cc4ccccc4N3C(=O)/C=C\C(=O)O)c(C)[nH]c2c1` (stereo unspecified), the TGI is more than 100 µM.

For `COc1ccc(C=O)c([N+](=O)[O-])c1`, the TGI was more than 100 µM.

In turn, `CCOC(=O)C1C(=S)NC(=O)C1C#N` (stereo unspecified) had a TGI of more than 100 µM.

In the case of `CC#CCC1CCC(OCC)=CC1=O` (stereo unspecified), the TGI was more than 100 µM.

As to `O=C1CC(c2c[nH]c3ccccc23)C(=O)N1` (stereo unspecified), the TGI was more than 100 µM.

The compound `N#CC(=C1C=CC(=NO)C=C1)c1ccc(Cl)cc1` registered a TGI of 3.98 µM.

Take `COc1cc2c(c(OC)c1OC)-c1ccc(SC)c(=O)cc1C(NC(=O)c1ccccc1)CC2` (stereo unspecified): the TGI stood at 0.0357 µM.

On to `Cc1c(/C=N/N=C/c2[nH]c(C(=O)OC(C)(C)C)c(C)c2C)[nH]c(C(=O)OC(C)(C)C)c1C`, for which the TGI was more than 100 µM.

The next assay has as its system KM20L2 colon. Put plainly: NCI tumour cell line growth inhibition, 48 h.
Turning to `CC/C=C\C/C=C\C/C=C\CCCCCCCC(=O)OCC(O)CO` (stereo unspecified), the TGI is more than 100 µM.

With `Cc1cccc(C)c1NC(=O)/C(=N/NC(N)=S)C(C)C(=O)c1ccc(Cl)cc1` (stereo unspecified), the TGI was more than 100 µM.

In turn, `N#CC(C#N)=C1NC(=O)CC(=O)N1` came in with a TGI of more than 100 µM.

Compound `Nc1nc(OCc2ccccc2)c2[nH]cnc2n1` had a TGI of 400 µM.

`Fc1ccc(C2SCc3nc4ccccc4n32)c(F)c1` (stereo unspecified) showed a TGI of more than 100 µM.

The compound `NC(=O)c1csc(C2OC(CO)C(O)C2O)n1` (stereo unspecified) returned a TGI of more than 9200 µM.

The compound `CCN(CC)CC1c2ccccc2C(CNc2ccccc2)N1C` (stereo unspecified) displayed a TGI of more than 100 µM.

Compound `CC1(O)C=CC(=O)C=C1` yielded a TGI of more than 100 µM.

Compound `CC(=O)Nc1ccc(SC#N)c2c(NC(C)=O)cccc12` yielded a TGI of more than 100 µM.

In turn, `Cc1ccc(-c2nnc(-c3nn(-c4ccccc4)c4nc5ccccc5nc34)o2)cc1` registered a TGI of more than 100 µM.

Consider `Cc1ccc2c(C3Cc4ccccc4N3C(=O)/C=C\C(=O)O)c(C)[nH]c2c1` (stereo unspecified), for which the TGI is more than 100 µM.

Compound `COc1ccc(C=O)c([N+](=O)[O-])c1` yielded a TGI of 45.2 µM.

For `CCOC(=O)C1C(=S)NC(=O)C1C#N` (stereo unspecified), the TGI was more than 100 µM.

The compound `CC#CCC1CCC(OCC)=CC1=O` (stereo unspecified) returned a TGI of more than 100 µM.

Consider `O=C1CC(c2c[nH]c3ccccc23)C(=O)N1` (stereo unspecified), for which the TGI is more than 100 µM.

For the compound `N#CC(=C1C=CC(=NO)C=C1)c1ccc(Cl)cc1`, the TGI was more than 100 µM.

`COc1cc2c(c(OC)c1OC)-c1ccc(SC)c(=O)cc1C(NC(=O)c1ccccc1)CC2` (stereo unspecified): the TGI is less than 0.01 µM.

For `Cc1c(/C=N/N=C/c2[nH]c(C(=O)OC(C)(C)C)c(C)c2C)[nH]c(C(=O)OC(C)(C)C)c1C`, the TGI was more than 100 µM.

In a further assay the test system is M19-MEL melanoma. Put plainly: NCI tumour cell line growth inhibition, 48 h.
`Cc1cccc(C)c1NC(=O)/C(=N/NC(N)=S)C(C)C(=O)c1ccc(Cl)cc1` (stereo unspecified) registered a TGI of more than 100 µM.

For `N#CC(C#N)=C1NC(=O)CC(=O)N1`, the TGI is more than 100 µM.

As to `Nc1nc(OCc2ccccc2)c2[nH]cnc2n1`, the TGI came out at 400 µM.

In turn, `Fc1ccc(C2SCc3nc4ccccc4n32)c(F)c1` (stereo unspecified) displayed a TGI of more than 100 µM.

With `NC(=O)c1csc(C2OC(CO)C(O)C2O)n1` (stereo unspecified), the TGI was more than 5520 µM.

As to `CCN(CC)CC1c2ccccc2C(CNc2ccccc2)N1C` (stereo unspecified), the TGI was more than 100 µM.

Take `CC1(O)C=CC(=O)C=C1`: the TGI came to 58.6 µM.

As for `CC(=O)Nc1ccc(SC#N)c2c(NC(C)=O)cccc12`, the TGI was more than 100 µM.

Regarding `Cc1ccc(-c2nnc(-c3nn(-c4ccccc4)c4nc5ccccc5nc34)o2)cc1`, the TGI was more than 100 µM.

Compound `Cc1ccc2c(C3Cc4ccccc4N3C(=O)/C=C\C(=O)O)c(C)[nH]c2c1` (stereo unspecified) displayed a TGI of more than 100 µM.

Compound `COc1ccc(C=O)c([N+](=O)[O-])c1` registered a TGI of more than 100 µM.

`CCOC(=O)C1C(=S)NC(=O)C1C#N` (stereo unspecified) registered a TGI of more than 100 µM.

On to `CC#CCC1CCC(OCC)=CC1=O` (stereo unspecified), for which the TGI was more than 100 µM.

Regarding `O=C1CC(c2c[nH]c3ccccc23)C(=O)N1` (stereo unspecified), the TGI was more than 100 µM.

On to `N#CC(=C1C=CC(=NO)C=C1)c1ccc(Cl)cc1`, for which the TGI stood at 46.9 µM.

Turning to `COc1cc2c(c(OC)c1OC)-c1ccc(SC)c(=O)cc1C(NC(=O)c1ccccc1)CC2` (stereo unspecified), the TGI was more than 100 µM.

For the compound `Cc1c(/C=N/N=C/c2[nH]c(C(=O)OC(C)(C)C)c(C)c2C)[nH]c(C(=O)OC(C)(C)C)c1C`, the TGI was more than 100 µM.

Another assay concerns MALME-3M melanoma. Description: NCI tumour cell line growth inhibition, 48 h.
As to `CC/C=C\C/C=C\C/C=C\CCCCCCCC(=O)OCC(O)CO` (stereo unspecified), the TGI is more than 100 µM.

In the case of `Cc1cccc(C)c1NC(=O)/C(=N/NC(N)=S)C(C)C(=O)c1ccc(Cl)cc1` (stereo unspecified), the TGI was more than 100 µM.

`N#CC(C#N)=C1NC(=O)CC(=O)N1` had a TGI of more than 100 µM.

As to `Nc1nc(OCc2ccccc2)c2[nH]cnc2n1`, the GI50 is 28 µM and 23.3 µM; the TGI was 264 µM and 136 µM.

Consider `Fc1ccc(C2SCc3nc4ccccc4n32)c(F)c1` (stereo unspecified), for which the TGI is more than 100 µM.
